From PubChem BioAssay (NCI)
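The compound was tested at five concentrations on cells cultured in 96-well plates, with a 48-hour exposure period. GI50 is the concentration that inhibits growth by half. TGI marks complete inhibition of growth.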

Experiments:
Assay in all cases: inhibition of tumour cell growth, NCI panel, 48 h
A549 NSCLC = test system: A549 NSCLC
EKVX NSCLC = test system: EKVX NSCLC
M14 melanoma = test system: M14 melanoma
NCI-H226 lung = test system: NCI-H226 lung
NCI-H460 lung = test system: NCI-H460 lung
OVCAR-3 ovarian = test system: OVCAR-3 ovarian
RXF 393 renal = test system: RXF 393 renal
SF-539 CNS = test system: SF-539 CNS
U251 CNS = test system: U251 CNS
UACC-62 melanoma = test system: UACC-62 melanoma

Row | Structure (SMILES) | TGI (A549 NSCLC) [µM] | TGI (EKVX NSCLC) [µM] | TGI (M14 melanoma) [µM] | TGI (NCI-H226 lung) [µM] | TGI (NCI-H460 lung) [µM] | TGI (OVCAR-3 ovarian) [µM] | TGI (RXF 393 renal) [µM] | TGI (SF-539 CNS) [µM] | TGI (U251 CNS) [µM] | TGI (UACC-62 melanoma) [µM] | GI50 (EKVX NSCLC) [µM] | GI50 (M14 melanoma) [µM] | GI50 (NCI-H226 lung) [µM] | GI50 (NCI-H460 lung) [µM] | GI50 (OVCAR-3 ovarian) [µM] | GI50 (RXF 393 renal) [µM] | GI50 (SF-539 CNS) [µM] | GI50 (U251 CNS) [µM] | GI50 (UACC-62 melanoma) [µM] | GI50 (A549 NSCLC) [µM]
1 | O=c1cnn2c(n1)sc1ccc3ccccc3c12 | > 100 | > 100 | > 100 | > 100 | > 100 | > 100 | > 100 | > 100 | > 100 | > 100 | – | – | – | – | – | – | – | – | – | –
2 | COC1=CC(c2ccc[nH]2)=N/C1=C\c1[nH]c(C)c(C(=O)CCCCC(=O)Nc2ccccc2)c1C | – | 19.8 | 4.51 | 6.11 | 2.63 | 2.51 | 2.23 | 9.78 | 2.56 | 24.5 | 2.64 | 2.01 | 1.85 | 1.25 | 1.21 | 1.03 | 3.78 | 1.29 | 8.71 | –
3 | NC(=S)N/N=C1/C(=O)N(c2ccc(Cl)cc2Cl)C(=O)C(=O)C1c1nc2ccccc2s1 (centres undefined) | – | > 100 | > 100 | > 100 | > 100 | > 100 | > 100 | > 100 | > 100 | > 100 | – | – | – | – | – | – | – | – | – | –
4 | Nc1nc2nc[nH]c2c(=O)[nH]1 | > 100 | > 100 | > 100 | > 100 | > 100 | > 100 | > 100 | > 100 | > 100 | > 100 | – | – | – | – | – | – | – | – | – | –
5 | CCCN(CCC)c1ccc(/C=N/NC(=O)c2cccnc2)c(Cl)c1 | 36.1 | 71.4 | 23.2 | 0.707 | 17.2 | 9.29 | 25.3 | 26.5 | 20.6 | 4.6 | 17 | 8.71 | 0.241 | 3.63 | 2.93 | 11.5 | 11.6 | 4.78 | 0.875 | 6.84
6 | O=C1CCC2(CC1)SCCCS2 | > 100 | > 100 | > 100 | > 100 | > 100 | > 100 | > 100 | – | > 100 | > 100 | – | – | – | – | – | – | – | – | – | –
7 | Cc1cc(Cl)cc2c1NC(=O)C2(O)C(C)C(=O)c1ccc(Cl)cc1 (centres undefined) | > 100 | > 100 | > 100 | > 100 | > 100 | > 100 | 89.8 | > 100 | > 100 | 44 | – | – | – | – | – | – | – | – | – | –
8 | COc1ccc(/C=C2\CCC(C)(CN(C)C)C2=O)cc1 (centres undefined) | > 100 | > 100 | > 100 | > 100 | > 100 | > 100 | > 100 | > 100 | > 100 | > 100 | – | – | – | – | – | – | – | – | – | –
9 | COC(=O)C1=C(C(=O)OC)C23C=C(C)C1C2=C(C)C1(CC1)[C@@](C)(O)C3=O (some centres undefined) | 0.858 | 5.42 | 1.46 | 3.07 | 1.19 | 2.12 | 0.341 | 1.56 | > 42.8 | 0.792 | 0.615 | 0.316 | 0.438 | 0.203 | 0.336 | 0.179 | 0.337 | 0.311 | 0.259 | 0.255
10 | CCOC(=O)c1sc(=S)c2c(C(=O)OCC)c(C(=O)OCC)sc2c1C(=O)OCC | 42.8 | 43.4 | 32.6 | 26.7 | 51.2 | 68 | 39.4 | 36.1 | 26.5 | 26.9 | 21.5 | 16.8 | 10.9 | 21.4 | 16 | 13 | 18.9 | 12.7 | 12.1 | 16.4
11 | CC12CCC[C@@](C)(C(=O)OC3OC(CO)C(O)C(O)C3O)[C@H]1CCC13CC4CC(OC4(CO)[C@H]1O)[C@@H]23 (some centres undefined) | > 100 | > 100 | > 100 | > 100 | > 100 | > 100 | > 100 | > 100 | > 100 | > 100 | – | – | – | – | – | – | – | – | – | –
12 | COC(=O)C1=C(CO)C2C=CC1C2 (centres undefined) | > 100 | > 100 | > 100 | > 100 | > 100 | > 100 | > 100 | > 100 | > 100 | > 100 | – | – | – | – | – | – | – | – | – | –
13 | C[C@@]12CCC(=O)C=C1CC[C@H]1C2=CC[C@]2(C)C1CC[C@@]2(C)O (some centres undefined) | > 100 | > 100 | > 100 | > 100 | > 100 | > 100 | > 100 | > 100 | > 100 | > 100 | – | – | – | – | – | – | – | – | – | –
14 | N#Cc1ccnc(N2C(=O)CC[C@H]2C(=O)N(c2cncc(F)c2)[C@H](C(=O)NC2CC(F)(F)C2)c2ccccc2Cl)c1 | > 100 | > 100 | > 100 | > 100 | > 100 | > 100 | > 100 | > 100 | > 100 | > 100 | 99.2 | 49.1 | > 100 | 73.3 | 63.9 | > 100 | > 100 | > 100 | 41.2 | 65.8
15 | O=c1c2ccccc2c2nc3ccccc3nc2n1C1CCCCC1 | > 100 | > 100 | – | > 100 | – | > 100 | > 100 | > 100 | > 100 | > 100 | – | – | – | – | – | – | – | – | – | –
16 | CS(=O)(=O)Nc1ccc(Nc2c3ccccc3nc3ccccc23)cc1 | 10.1 | 29.6 | 17.5 | 7.14 | 6.95 | 18.7 | 23.3 | 20.2 | 13.8 | 9 | – | – | – | – | – | – | – | – | – | –
17 | CC(C)(C)C(=O)C1CC(=O)c2ccccc2C1=O (centres undefined) | > 100 | > 100 | > 100 | > 100 | > 100 | 71.4 | 80.6 | > 100 | 99.7 | > 100 | – | – | – | – | – | – | – | – | – | –
